Test system: HSP70 and client protein (CDK4) expression in HT29 cells
Assay: Western blotting of HSP70 and CDK4 in HT29 cells
Type: cell-based, human
Conditions: 24 hours, various concentrations
Experimental: The cellular effects of HSP90 inhibitors can be measured using a number of molecular markers. As already mentioned, HSP90 inhibition leads to the depletion of several important cellular signalling proteins. […] Depletion is normally observed by 6 h, with maximum depletion occurring at 24 h. As well as RAF-1, depletion of several other HSP90 client proteins can be measured by immunoblotting e.g., CDK4, ERBB2. However, it is important to note that some of these proteins are cell line specific e.g., ERBB2 is expressed mainly in breast, thyroid, kidney and some ovarian tumour cell lines. Another very important marker of HSP90 inhibition is heat shock protein 70 (HSP70). A HSF-1 (heatshock factor 1) dependent increase in HSP70 levels has been reported by us and other groups (see, e.g., Whitesell et al., 1994; Clarke et al., 2000) and this effect can serve as a positive indicator of HSP90 inhibitor action. The immunoblotting method described is based on standard techniques but is described in detail for ease of reference.
Prepare as required and store at −20° C. • (4) Bicinchoninic acid (BCA) protein assay reagents (PerBio Science UK, Ltd., Chester, UK). • (5) Casein blocking buffer (0.5% casein, 0.02% thimerosal, in PBS). Store at 4° C. for up to 2 weeks. • (6) Wash buffer (phosphate buffered saline, PBS) containing 0.05% Tween 20). • (7) Tris-glycine gradient polyacrylamide precast gels (4–20%) (1 mm thick) (Novex, InVitrogen, Groningen, NL). • (8) Nitro-cellulose membrane (0.2 μm pore size) (InVitrogen, Groningen, NL). • (9) Ponceau Red stain (2% w/v in 30% TCA/30% […], Sigma Aldrich Ltd., Pool, UK). • (10) Enhanced chemiluminescence (SuperSignal) reagents (PerBio Science UK, Ltd., Chester, UK). • (11) Photographic film (Hyperfilm ECL, Amersham Pharmacia Biotech, Little Chalfont, Bucks, UK). Method
The following protocol was used: • (1) Lyse cells (approx 4×10^6) in 100 μl lysis buffer for 30 minutes on ice. When adding the lysis buffer, shear cells by pipetting up and down using a Gilson P200 pipette. • (2) Spin lysates for 10 min at 13,000 rpm at 4° C., retrieve supernatant and store at −70° C. • (3) Determine protein concentration using BCA protein assay reagents. • (4) Load samples of cell lysates (50 μg protein/lane) onto gel and separate proteins by SDS-polyacrylamide gel electrophoresis (SDS-PAGE) using a 4–20% Tris-glycine gel. • (5) Transfer proteins to nitrocellulose membrane using optimum conditions for the equipment available. For example, 150 mA for 2 h using the Mighty Small transfer system (Hoeffer TE22 Mini Tank Transphor Unit, Amersham Pharmacia Biotech, Little Chalfont, Bucks, UK). […]
Comments • (1) The protein bands are normally evaluated visually. […]

`CCc1cc(-c2n[nH]c(C)c2-c2ccc3c(c2)OCCO3)c(O)cc1O` [CCT018159, 4-[4-(2,3-Dihydro-benzo[1,4]dioxin-6-yl)-5-methyl-1H-pyrazol-3-yl]-6-ethyl-benzene-1,3-diol] was tested, and the “CDK4 client protein expression (immunoblot)” value was “depleted” and the “HSP70 expression (immunoblot)” value was “elevated HSP70 expression”.
